Inhibition data for 2 compounds are collected here from ChEMBL document CHEMBL6120959.

The source made the active and inactive calls. The rule behind the calls is not given here.

In assay [1] the target is Lysine-specific histone demethylase 1A (Homo sapiens) (UniProt O60341). The class given is cell-based. As to conditions: HCT-116, dose 0.063-1 µM, time 48.0 hrs.
Assay [2] has the same target. In words: Inhibition of LSD1 (unknown origin) demethylase-mediated FAD-dependent H2O2 production at 1 uM by fluorescence coupling enzyme assay.
Assay [3] has as its target T1, Histone deacetylase (Homo sapiens) (UniProt Q13547+O15379+Q9UBN7+Q92769+Q9UQL6+Q8WUI4+Q9BY41+Q96DB2+P56524+Q9UKV0+Q969S8). The class given is cell-based. To be noted: HCT-116, dose 0.063-1 µM, time 48.0 hrs.
The target of assay [4] is T1, Histone deacetylase (Homo sapiens). The class given is cell-based. To be noted: HCT-116, dose 0.063-1 µM, time 48.0 hrs. This is another data set of the same source.
The target in assay [5] is Lysine-specific histone demethylase 1A (Homo sapiens) (UniProt O60341). The class given is tissue-based. As to conditions: Colorectal cancer organoid, dose 0.313-5 µM, time 10.0 day.
The target of assay [6] is T1, Histone deacetylase (Homo sapiens). In words: Inhibition of HDAC in patient-derived human Colorectal cancer organoid assessed as increase in acetyl-tubulin level at 0.313 to 5 uM treated for 10 days by Western blot analysis. The class given is tissue-based. As to conditions: dose 0.313-5 µM, time 10.0 day. For orientation: In western blotting, separated proteins are transferred to a membrane and probed.

For assay [7] the target is unchanged. In words: Inhibition of HDAC in patient-derived human Colorectal cancer organoid assessed as increase in acetyl-histone H3 level at 0.313 to 5 uM treated for 10 days by Western blot analysis. To be noted: dose 0.313-5 µM, time 10.0 day. The class given is tissue-based.
In assay [8] the target is Lysine-specific histone demethylase 1A (Homo sapiens) (UniProt O60341). The class given is tissue-based. To be noted: Colorectal cancer organoid, dose > 2.5 µM, time 10.0 day.
For assay [9] the target is unchanged. In words: Inhibition of LSD1 in patient-derived human Colorectal cancer organoid at >2.5 uM treated for 10 days by IHC analysis. The class given is tissue-based. As to conditions: time 10.0 day.

On to `O=C(CCCCCCC(=O)Nc1ccccc1)NO`, for which the inhibition result in assay [1] was “Active; Compound Might Have Indirect Lsd1 Inhibitory Effect”.

On to `O=C(/C=C/c1cccc(S(=O)(=O)N[C@@H]2C[C@H]2c2ccccc2)c1)NO`, for which the inhibition result is “Active; More Effective Than Standard Lsd1 Inhibitor At All Concentrations Tested” in assay [2], “Dose-dependent-effect” in [3] and “Dose-dependent-effect” in assay [4]. Besides, the inhibition entry in [1], in [5], in assay [6], in assay [7], in assay [8] and in assay [9] was “Active” each time.
